Biological target: Receptor tyrosine-protein kinase erbB-2 (Homo sapiens, UniProt P04626)
Assay: ErbB Enzyme Assay
Protocol: The kinases were incubated with 250 nM TK-substrate biotin (CisBio, part of cat #62TK0PEC) at 1 mM ATP along with test compounds in a buffer consisting of 25 mM HEPES, pH 7.4, 10 mM MgCl2, 0.01% Triton X-100, and 2% DMSO in a volume of 8 uL. Compounds were prepared as a three-fold serial dilution in DMSO and added to the assay to give the appropriate final concentration. After 30-minute incubation at 22 C., the reaction was quenched by adding 8 uL of quench solution containing 62.5 nM Sa-XL665 and 0.25x TK-Ab-Cryptate in HTRF detection buffer (all from CisBio, part of cat #62TK0PEC). After a 1-hour incubation at 22 C., the extent of reaction was determined using a PerkinElmer EnVision multimode plate reader via HTRF dual wavelength detection, and the percent of control (POC) was calculated using a ratiometric emission factor.

Receptor tyrosine-protein kinase erbB-2, sequence (P04626 whole entry): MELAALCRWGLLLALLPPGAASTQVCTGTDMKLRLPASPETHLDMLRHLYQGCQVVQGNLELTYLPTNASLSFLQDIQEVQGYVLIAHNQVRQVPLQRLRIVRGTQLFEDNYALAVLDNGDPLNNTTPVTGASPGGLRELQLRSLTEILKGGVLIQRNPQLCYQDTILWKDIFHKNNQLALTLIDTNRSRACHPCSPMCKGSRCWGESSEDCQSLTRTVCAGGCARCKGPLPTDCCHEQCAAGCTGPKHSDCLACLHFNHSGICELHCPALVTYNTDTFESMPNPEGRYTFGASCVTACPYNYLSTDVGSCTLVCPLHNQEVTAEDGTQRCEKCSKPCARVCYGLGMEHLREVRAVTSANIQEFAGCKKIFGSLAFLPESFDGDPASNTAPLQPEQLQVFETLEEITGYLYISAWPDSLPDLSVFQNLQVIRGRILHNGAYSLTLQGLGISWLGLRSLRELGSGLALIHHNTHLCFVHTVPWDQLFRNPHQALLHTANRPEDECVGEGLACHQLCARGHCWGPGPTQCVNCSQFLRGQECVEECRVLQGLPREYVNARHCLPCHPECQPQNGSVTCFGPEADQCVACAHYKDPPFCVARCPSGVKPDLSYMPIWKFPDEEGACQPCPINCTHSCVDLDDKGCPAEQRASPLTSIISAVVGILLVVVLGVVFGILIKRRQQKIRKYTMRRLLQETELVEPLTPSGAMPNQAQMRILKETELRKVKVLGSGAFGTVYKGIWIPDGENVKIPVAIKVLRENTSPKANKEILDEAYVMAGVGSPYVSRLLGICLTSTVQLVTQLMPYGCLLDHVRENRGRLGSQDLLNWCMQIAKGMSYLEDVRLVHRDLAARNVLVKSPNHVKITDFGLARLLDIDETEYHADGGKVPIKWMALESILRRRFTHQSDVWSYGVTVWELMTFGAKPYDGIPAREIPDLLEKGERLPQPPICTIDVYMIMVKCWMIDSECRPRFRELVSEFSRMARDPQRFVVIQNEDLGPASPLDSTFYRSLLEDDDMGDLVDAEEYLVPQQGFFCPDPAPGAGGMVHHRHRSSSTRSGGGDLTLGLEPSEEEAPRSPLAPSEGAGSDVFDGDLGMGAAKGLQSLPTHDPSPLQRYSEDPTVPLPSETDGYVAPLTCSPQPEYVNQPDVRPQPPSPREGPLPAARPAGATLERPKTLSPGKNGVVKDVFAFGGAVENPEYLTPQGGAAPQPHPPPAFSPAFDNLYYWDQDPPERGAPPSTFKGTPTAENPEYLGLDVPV

Compound | IC50 [nM]
CCOc1ncc2ncnc(Nc3ccc(Oc4ccc5c(c4)ncn5C)c(C)c3)c2n1 [US11834453, Example 13] | 121
Cc1cc(Nc2ncnc3cnc(N4CC5C6CCC(O6)C5C4)nc23)ccc1Oc1ccc2c(c1)ncn2C (stereo not drawn) [US11834453, Example 16] | 60.6
Cc1cc(Nc2ncnc3cnc(N4C[C@H]5CC[C@@H]4CO5)nc23)ccc1Oc1ccn2ncnc2c1 [US11834453, Example 127] | 114

Other lines, results leading:

IC50 [nM] | Compound
32.2 | Cc1cc(Nc2ncnc3cnc(N(C)C[C@@H](C)O)nc23)ccc1Oc1ccc2c(c1)ncn2C [US11834453, Example 189]
37.5 | Cc1cc(Nc2ncnc3cnc(N(C)C[C@H](C)O)nc23)ccc1Oc1ccc2c(c1)ncn2C [US11834453, Example 195]
67.1 | Cc1cc(Nc2ncnc3cnc(N4CCCO4)nc23)ccc1Oc1ccc2c(c1)ncn2C [US11834453, Example 178]
25.6 | Cc1cc(Nc2ncnc3cnc(N(C)CCO)nc23)ccc1Oc1ccc2c(c1)ncn2C [US11834453, Example 208]
171 | Cc1cc(Nc2ncnc3cnc(N4CC(C)(O)CO4)nc23)ccc1Oc1ccc2c(c1)ncn2C (stereo not drawn) [US11834453, Example 191]

Source: BindingDB's records for patent US11834453 (Array Biopharma, 2023)
